Source: patent publication EP0063075A1, “(2,6-Dimethoxy-4-hydroxyphenyl)-(3-piperidinopropyl) ketone and its salts, its use in therapeutic preparations and process for its production” (LABORATOIRE L. LAFON Société anonyme dite:, priority 1981, dated 1982)

Tests used:
[1] = result in words, compared with LL 1656; cited from earlier work
[2] = test system: chien mâle anesthésié au nembutal; assay: Peripheral vasodilator properties, intraduodenal administration in the anaesthetised dog; type: in vivo; settings: for effet sur la pression artérielle par voie I.D. / effet vasodilatateur par voie I.D.: result in words
Procedure: (§1) Les propriétés vasodilatatrices périphériques ont été étudiées chez le chien mâle anesthésié au nembutal (6 animaux par dose et par produit). Les produits à comparer sont administrés en solution dans du sérum physiologique sous un volume de 6 ml/animal par voie intraveineuse (perfusion de 1 ml/min) et sous un volume de 10 ml/animal par voie intraduodénale. Par rapport aux témoins (les mêmes animaux ne recevant que le sérum physiologique), on mesure trois paramètres : la pression artérielle moyenne (exprimée en mm Hg; mm Hg correspond à 1,333224 x 10^2 Pa), la fréquence cardiaque (exprimée en battements/minute) et le débit artériel fémoral (exprimé en ml/min). Les variations de ces paramètres exprimées en pourcentages, par rapport aux témoins, sont données dans les tableaux II (administration intraveineuse) et III (administration intraduodénale) ci-après.
(§2) La vasodilatation périphérique se traduit dans ces circonstances par une augmentation du débit artériel fémoral. On dit, selon les présentes conditions opératoires, qu'un produit est un agent vasodilatateur périphérique si le débit artériel fémoral augmente d'au moins 30% par administration intraveineuse, d'une part, et par administration intraduodénale, d'autre part, sans que la variation de la pression artérielle soit supérieure à +10% ou inférieure à -10%.

[3] = Solubility in water (description of the isolated product); type: physicochemical; settings: result in words
[4] = test system: chien mâle anesthésié au nembutal; assay: Peripheral vasodilator properties, intravenous administration in the anaesthetised dog; type: in vivo
Procedure: as §1, §2

escarres = assay: Clinical use in the treatment of bedsores; type: in vivo, homme; settings: in man
[5] = as indicated in British patent n° 1.325.192; cited from earlier work

COc1cc(O)c(C(=O)CCCN2CCCC2)c(OC)c1 [(2,4-diméthoxy-6-hydroxyphényl)-(3-pyrrolidinopropyl)-cétone]
propriétés vasodilatatrices périphériques [1]: aussi intéressants que le LL 1656

COc1cc(O)c(C(=O)CCCN2CCCCC2)c(OC)c1 [CP1, chlorhydratede (2,4-diméthoxy-6-hydroxyphényl)-(3-pipé-ridinopropyl)-cétone]
diminution de la pression artérielle par voie I.D. ([2]; intraduodenal route): > 10%
effet sur la pression artérielle par voie I.D. ([2]; intraduodenal route): effet hypotenseur
effet vasodilatateur par voie I.D. ([2]; intraduodenal route): n'a guère d'effet vasodilatateur
solubilité dans l'eau [3]: très soluble dans l'eau
effet vasodilatateur par voie I.V. ([4]; result in words, i.v. route): très faiblement vasodilatateur

COc1ccc(C(=O)CN2CCCCC2)c(OC)c1 [CP5, (2,4-dimé-thoxyphényl)-(pipéridinométhyl)-cétone]
change in vivo at 20 mg/kg ([2]; Canis lupus familiaris, intraduodenal, dose 20 mg/kg, versus controls, read-out: Variations en % Pression artérielle): 0%

COc1cc(O)cc(OC)c1C(=O)CCCN1CCCCC1 [Exemple 1, chlorhydratede (2,6-diméthoxy-4-hydroxyphényl)-(3-pipéridinopropyl)-cétone]
résultats dans le traitement des escarres (escarres): bons résultats
variation du débit artériel fémoral par voie I.D. ([2]; intraduodenal route): > +30%
solubilité dans l'eau [3]: soluble dans l'eau
activité en tant que vasodilatateur périphérique (comparaison) ([4]; text conclusion from tables II and III (i.v. and i.d.)): aussi actif que le produit de référence CP7
variation du débit artériel fémoral par voie I.V. ([4]; text summary over all i.v. doses (toujours)): > +30%

(2,6-dihydroxy-4-méthoxyphényl)- ou (2,4-dihydroxy-6-méthoxyphényl)-(3-pyrrolidinopropyl)-cétone
propriétés vasodilatatrices périphériques [1]: dépourvus d'effets vasodilatateurs périphériques

O=C(CCCN1CCCCC1)c1c(O)cc(O)cc1O [CP2, chlorhydratede (2,4,6-trihydroxyphényl)-(3-pipéridinopropyl)-cétone]
variation du débit artériel fémoral par voie I.D. ([2]; intraduodenal route): +17%
effet sur la pression artérielle par voie I.D. ([2]; intraduodenal route): effet hypotenseur
effet vasodilatateur par voie I.D. ([2]; intraduodenal route): pratiquement dépourvu d'effet vasodilatateur
dose à partir de laquelle le produit est vasodilatateur par voie I.V. [5]: ≥ 5 mg/kg

COc1cc(OC)c(C(=O)CCCN2CCCC2)c(OC)c1 [CP7, chlorhydratede (2,4,6-triméthoxyphényl)-(3-pyrrolidinopropyl)-cétone]
change in vivo at 6 mg/kg ([4]; Canis lupus familiaris, intravenous, dose 6 mg/kg, versus controls, read-out: Variations en % Fréquence cardiaque): 0%
change in vivo at 1.5 mg/kg ([4]; Canis lupus familiaris, intravenous, dose 1,5 mg/kg, versus controls, read-out: Variations en % Pression artérielle): 0%

COc1cc(O)cc(OC)c1C(=O)CCCN1CCCC1 [(2,6-diméthoxy-4-hydroxy-phényl)-(3-pyrrolidinopropyl)-cétone]
propriétés vasodilatatrices périphériques [1]: dépourvus d'effets vasodilatateurs périphériques

O=C(CCCN1CCCC1)c1c(O)cc(O)cc1O [(2,4,6-trihydroxyphényl)-(3-pyrrolidinopropyl)-cétone]
propriétés vasodilatatrices périphériques [1]: aussi intéressants que le LL 1656
